# Source: paper PMC8536124 (International Journal of Molecular Sciences, 2021)
# Where two headings read alike, the source gives them in different places.
# Assays:
# MDA-MB-468 = assay: NCI-60 screening (SRB); format: cell-based, human; conditions: five-dose
# MOLT-4 = assay: NCI-60 screening (SRB); format: cell-based, human; conditions: five-dose
# 786-0 = assay: NCI-60 screening (SRB); format: cell-based, human; conditions: five-dose
# U251 = assay: NCI-60 screening (SRB); format: cell-based, human
# MDA-MB-435 = assay: NCI-60 screening (SRB); format: cell-based, human; conditions: five-dose
# SK-MEL-28 = assay: NCI-60 screening (SRB); format: cell-based, human; conditions: five-dose
# SF-268 = assay: NCI-60 screening (SRB); format: cell-based, human; conditions: five-dose
# PC-3 = assay: NCI-60 screening (SRB); format: cell-based, human; conditions: five-dose
# [1] = system: NCI-60 cancer cell line panel; assay: NCI-60 screening (SRB), full panel; format: cell-based, human; conditions: for activity at 10 µM: 60 cell lines, 48 h
# Excerpt: (§1) The experimental data allow the assessment of the cytostatic effect, indicated by growth inhibition values ranging between 0 and 100, as well as of the cytotoxic effect, indicated by negative values.
# (§2) The mean GI50 (molar concentration of the compound that inhibits 50% net cell growth), TGI (molar concentration of the compound leading to the total inhibition), and LC50 (molar concentration of the compound leading to 50% net cell death (presented in negative logarithm)) values across each cell line are shown in Table 2.
# (§3) The selectivity index (SI), calculated as the ratio between the full panel MG_MID60 (μM) of compounds 4, 6, and 9 by their respective subpanels MG_MID of the cell line (μM), was introduced as a quantification tool for the selectivity of each compound in terms of anticancer effect (Table 3).
# (§4) Primary anticancer assays were performed according to the NCI protocol, as described elsewhere (see e.g., http://dtp.nci.nih.gov accessed on 1 November 2018). The compounds were added at a single concentration, and the cell cultures were incubated for 48 h. The end point determinations were made with a protein-binding dye, sulforhodamine B (SRB). […] The percentage of growth was evaluated spectrophotometrically versus controls not treated with test agents after 48 h exposure and using SRB protein assay to estimate cell viability or growth. Three antitumor activity dose-response parameters were calculated for each cell line. Furthermore, mean graph midpoints (MG_MID) were calculated for each of the parameters, giving an average activity parameter over all cell lines for the tested compound. For the MG_MID calculation, insensitive cell lines were included with the highest concentration tested.
# HCT-116 = assay: NCI-60 screening (SRB); format: cell-based, human; conditions: five-dose
# Melanoma = assay: NCI-60 screening (SRB), subpanel; format: cell-based
# Excerpt: as §1, §2, §3, §4
# Colon Cancer = assay: NCI-60 screening (SRB), subpanel; format: cell-based
# Excerpt: as §1, §2, §3, §4
# Prostate cancer = assay: NCI-60 screening (SRB), subpanel; format: cell-based
# Excerpt: as §1, §2, §3, §4
# Breast cancer = assay: NCI-60 screening (SRB), subpanel; format: cell-based
# Excerpt: as §1, §2, §3, §4
# Ovarian cancer = assay: NCI-60 screening (SRB), subpanel; format: cell-based
# Excerpt: as §1, §2, §3, §4
# Leukemia = assay: NCI-60 screening (SRB), subpanel; format: cell-based
# Excerpt: as §1, §2, §3, §4
# Renal Cancer = assay: NCI-60 screening (SRB), subpanel; format: cell-based
# Excerpt: as §1, §2, §3, §4
# NSC lung cancer = assay: NCI-60 screening (SRB), subpanel; format: cell-based
# Excerpt: as §1, §2, §3, §4
# ACHN = assay: NCI-60 screening (SRB); format: cell-based, human; conditions: five-dose
# SK-MEL-2 = assay: NCI-60 screening (SRB); format: cell-based, human; conditions: five-dose
# SW-620 = assay: NCI-60 screening (SRB); format: cell-based, human; conditions: five-dose
# MDA-MB-31/ATCC = assay: NCI-60 screening (SRB); format: cell-based, human; conditions: five-dose
# HCC-2998 = assay: NCI-60 screening (SRB); format: cell-based, human; conditions: five-dose
# CNS cancer = assay: cells; format: cell-based
# Excerpt: as §1, §2, §3, §4
# [2] = Homo sapiens, read-out: LC50 (the source's name)
smiles,measurement,setting,value
CCN1CCN(C(=O)[C@]23CCC(C)(C)C[C@H]2C2=CC[C@@H]4[C@@]5(C)C/C(=C/c6cccnc6)C(=O)C(C)(C)[C@@H]5CC[C@@]4(C)[C@]2(C)CC3)CC1 [Compound 6],GI50,MDA-MB-468; Homo sapiens,1.28 µM
same,CC50,MDA-MB-468; [2],19.7 µM
same,TGI,MDA-MB-468,3.94 µM
same,GI50,MOLT-4; Homo sapiens,1.43 µM
same,CC50,MOLT-4; [2],> 100 µM
same,TGI,MOLT-4,>100 µM
same,GI50,786-0; Homo sapiens,1.6 µM
same,CC50,786-0; [2],5.91 µM
same,TGI,786-0,3.08 µM
same,GI50,"U251; Homo sapiens, U-251, U251, five-dose",1.58 µM
same,CC50,"U251; Homo sapiens, U-251, U251, five-dose, read-out: LC50 (the source's name)",6.13 µM
same,Growth %,"U251; U251 (CNS cancer), 1 dose 10 µM",−88.15%
same,TGI,"U251; U251, five-dose",3.11 µM
same,GI50,MDA-MB-435; Homo sapiens,1.48 µM
same,CC50,MDA-MB-435; [2],6.52 µM
same,TGI,MDA-MB-435,3.11 µM
same,GI50,SK-MEL-28; Homo sapiens,1.48 µM
same,CC50,SK-MEL-28; [2],5.41 µM
same,TGI,SK-MEL-28,2.83 µM
same,GI50,SF-268; Homo sapiens,1.59 µM
same,CC50,SF-268; [2],85.7 µM
same,TGI,SF-268,4.79 µM
same,GI50,PC-3; Homo sapiens,1 µM
same,CC50,PC-3; [2],7.78 µM
same,TGI,PC-3,2.79 µM
same,Positive Cytostatic Effect (cell lines with percent growth 0 to 50 / total),[1]; 1 dose 10 µM,30/60
same,Positive Cytotoxic Effect (cell lines with percent growth <0 / total),[1]; 1 dose 10 µM,4/60
same,GI50,"[1]; Homo sapiens, five-dose, bound, read-out: GI50 against all human tumor cells",< 4 µM
same,GI50,"[1]; Homo sapiens, mean graph midpoint, full panel, five-dose, read-out: GI50 MG_MID60",1.52 µM
same,CC50,"[1]; Homo sapiens, mean graph midpoint, full panel, five-dose, read-out: LC50 MG_MID60",32.4 µM
same,activity at 10 µM,"[1]; Homo sapiens, 1 dose 10 µM, read-out: Mean Growth, %",23.4%
same,activity at 10 µM,"[1]; Homo sapiens, 1 dose 10 µM, read-out: Range of Growth, %",-91 to 83.8%
same,TGI MG_MID60,"[1]; mean graph midpoint, full panel, five-dose",6.29 µM
same,GI50,"[1]; mean graph midpoint, full panel, five-dose, read-out: GI50 MG_MID60",1.53 µM
same,selectivity class,[1]; toward some individual cell lines at the LC50 level,moderate selectivity (Ratios between 3 and 6 are indicators of moderate selectivity)
same,GI50,HCT-116; Homo sapiens,1.01 µM
same,CC50,HCT-116; [2],4.89 µM
same,TGI,HCT-116,2.22 µM
same,GI50,"Melanoma; Homo sapiens, Melanoma subpanel, five-dose, read-out: GI50 MG_MID",1.54 µM
same,CC50,"Melanoma; Homo sapiens, Melanoma subpanel, five-dose, read-out: LC50 MG_MID",9.2 µM
same,TGI MG_MID,"Melanoma; Melanoma subpanel, five-dose",3.21 µM
same,SI (TGI),"Melanoma; Melanoma, MG_MID60/subpanel MG_MID",1.96
same,TGI MG_MID,"Colon Cancer; Colon Cancer subpanel, five-dose",3.51 µM
same,SI (TGI),"Colon Cancer; Colon Cancer, MG_MID60/subpanel MG_MID",1.99
same,GI50,"Colon Cancer; Homo sapiens, Colon Cancer subpanel, five-dose, read-out: GI50 MG_MID",1.52 µM
same,CC50,"Colon Cancer; Homo sapiens, Colon Cancer subpanel, five-dose, read-out: LC50 MG_MID",25.4 µM
same,GI50,"Prostate cancer; Homo sapiens, Prostate cancer subpanel, five-dose, read-out: GI50 MG_MID",1.42 µM
same,CC50,"Prostate cancer; Homo sapiens, Prostate cancer subpanel, five-dose, read-out: LC50 MG_MID",8.01 µM
same,TGI MG_MID,"Prostate cancer; Prostate cancer subpanel, five-dose",3.34 µM
same,SI (TGI),"Prostate cancer; Prostate cancer, MG_MID60/subpanel MG_MID",1.89
same,TGI MG_MID,"Breast cancer; Breast cancer subpanel, five-dose",5.30 µM
same,SI (TGI),"Breast cancer; Breast cancer, MG_MID60/subpanel MG_MID",1.17
same,GI50,"Breast cancer; Homo sapiens, Breast cancer subpanel, five-dose, read-out: GI50 MG_MID",1.67 µM
same,CC50,"Breast cancer; Homo sapiens, Breast cancer subpanel, five-dose, read-out: LC50 MG_MID",39.6 µM
same,GI50,"Ovarian cancer; Homo sapiens, Ovarian cancer subpanel, five-dose, read-out: GI50 MG_MID",2.15 µM
same,CC50,"Ovarian cancer; Homo sapiens, Ovarian cancer subpanel, five-dose, read-out: LC50 MG_MID",36.2 µM
same,SI (TGI),"Ovarian cancer; Ovarian Cancer, MG_MID60/subpanel MG_MID",1.52
same,TGI MG_MID,"Ovarian cancer; Ovarian cancer subpanel, five-dose",4.14 µM
same,CC50,"Leukemia; Homo sapiens, Leukemia subpanel, five-dose, read-out: LC50 MG_MID",> 100 µM
same,TGI MG_MID,"Leukemia; Leukemia subpanel, five-dose",5.10 µM
same,SI (TGI),"Leukemia; Leukemia, MG_MID60/subpanel MG_MID",0.30
same,GI50,"Renal Cancer; Homo sapiens, Renal cancer subpanel, five-dose, read-out: GI50 MG_MID",1.97 µM
same,LC50 (50% net cell kill),"Renal Cancer; Homo sapiens, Renal cancer subpanel, five-dose, read-out: LC50 MG_MID",20.2 µM
same,SI (TGI),"Renal Cancer; Renal Cancer, MG_MID60/subpanel MG_MID",0.96
same,TGI MG_MID,"Renal Cancer; Renal cancer subpanel, five-dose",6.54 µM
same,GI50,"NSC lung cancer; Homo sapiens, NSC lung cancer subpanel, five-dose, read-out: GI50 MG_MID",1.91 µM
same,CC50,"NSC lung cancer; Homo sapiens, NSC lung cancer subpanel, five-dose, read-out: LC50 MG_MID",29.7 µM
same,TGI MG_MID,"NSC lung cancer; NSC lung cancer subpanel, five-dose",5.83 µM
same,SI (TGI),"NSC lung cancer; NSCL cancer, MG_MID60/subpanel MG_MID",1.08
same,GI50,ACHN; Homo sapiens,2.6 µM
same,LC50,ACHN; Homo sapiens,32.4 µM
same,TGI,ACHN,10.5 µM
same,GI50,SK-MEL-2; Homo sapiens,1.93 µM
same,CC50,SK-MEL-2; [2],8.16 µM
same,TGI,SK-MEL-2,3.96 µM
same,GI50,SW-620; Homo sapiens,1.78 µM
same,CC50,SW-620; [2],8.46 µM
same,TGI,SW-620,3.88 µM
same,GI50,MDA-MB-31/ATCC; Homo sapiens,1.4 µM
same,CC50,MDA-MB-31/ATCC; [2],5.78 µM
same,TGI,MDA-MB-31/ATCC,2.84 µM
same,GI50,HCC-2998; Homo sapiens,1.58 µM
same,CC50,HCC-2998; [2],6.17 µM
same,TGI,HCC-2998,3.12 µM
same,TGI MG_MID,"CNS cancer; CNS cancer subpanel, five-dose",3.50 µM
same,SI (TGI),"CNS cancer; CNS cancer, MG_MID60/subpanel MG_MID",1.80
same,GI50,"CNS cancer; Homo sapiens, CNS cancer subpanel, five-dose, read-out: GI50 MG_MID",1.63 µM
same,CC50,"CNS cancer; Homo sapiens, CNS cancer subpanel, five-dose, read-out: LC50 MG_MID",22.1 µM
